Assay results as given in patent US9334289B2, “Cephem compound having catechol or pseudo-catechol structure” (SHIONOGI & CO., LTD., priority 2011, dated 2016).

How the values were obtained:
Format in all cases: cell-based
P. aeruginosa SR24 = test: MIC, CLSI broth microdilution, Test Example 1; conditions: Pseudomonas aeruginosa, SR24; Ceftazidime resistance strain; cation-adjusted Mueller Hinton broth containing human apo-transferrin; 5×10^5 cfu/mL; read-out: Minimum Inhibitory Concentration (MIC) P. aeruginosa SR24
P. aeruginosa SR24837 = test: MIC, CLSI broth microdilution, Test Example 1; conditions: Pseudomonas aeruginosa, SR24837; PER-1 ESBL producing strain; cation-adjusted Mueller Hinton broth containing human apo-transferrin; 5×10^5 cfu/mL; read-out: Minimum Inhibitory Concentration (MIC) P. aeruginosa SR24837
Method: (§1) Measurement of Minimum Inhibitory Concentration (MIC: μg/mL) was conducted according to CLSI (Clinical and Laboratory Standards Institute) method, and the amount of bacteria for inoculation was 5×10^5 cfu/mL, and cation-adjusted Mueller Hinton broth containing human apo-transferrin was used as a test medium, and the experiment was conducted using broth microdilution method. The bacteria used are listed below.

A. baumannii SR27323 = test: MIC, CLSI broth microdilution, Test Example 1; conditions: Acinetobacter baumannii, SR27323; OXA-23, OXA-58 carbapenemase producing strain; cation-adjusted Mueller Hinton broth containing human apo-transferrin; 5×10^5 cfu/mL; read-out: Minimum Inhibitory Concentration (MIC) A. baumannii SR27323
Method: as §1

E. coli ATCCBAA-200 [1] = test: MIC, CLSI broth microdilution, Test Example 1; conditions: Escherichia coli, ATCCBAA200; SHV-4 ESBL producing strain; cation-adjusted Mueller Hinton broth containing human apo-transferrin; 5×10^5 cfu/mL; read-out: Minimum Inhibitory Concentration (MIC) E. coli ATCC BAA-200
Method: as §1

[2] = test system: K. pneumoniae ATCCBAA-1705; test: MIC, CLSI broth microdilution, Test Example 1; conditions: Klebsiella pneumoniae, ATCCBAA1705; KPC-2 carbapenemase producing strain; cation-adjusted Mueller Hinton broth containing human apo-transferrin; 5×10^5 cfu/mL; read-out: Minimum Inhibitory Concentration (MIC) K. pneumoniae ATCCBAA-1705
Method: as §1

P. aeruginosa SR27060 = test: MIC, CLSI broth microdilution, Test Example 1; conditions: Pseudomonas aeruginosa, SR27060; IMP-1 MBL producing strain (carbapenem resistance strain); cation-adjusted Mueller Hinton broth containing human apo-transferrin; 5×10^5 cfu/mL; read-out: Minimum Inhibitory Concentration (MIC) P. aeruginosa SR27060
Method: as §1

E. coli ATCCBAA-199 = test: MIC, CLSI broth microdilution, Test Example 1; conditions: Escherichia coli, ATCCBAA199; SHV-3 ESBL producing strain; cation-adjusted Mueller Hinton broth containing human apo-transferrin; 5×10^5 cfu/mL; read-out: Minimum Inhibitory Concentration (MIC) E. coli ATCC BAA-199
Method: as §1

P. aeruginosa SR01332 = test: MIC, CLSI broth microdilution, Test Example 2; conditions: Pseudomonas aeruginosa, SR01332; VIM-11 MBL producing strain (carbapenem resistance strain); cation-adjusted Iso-Sensitest broth containing human Apo-transferrin; 5×10^5 cfu/mL; read-out: Minimum Inhibitory Concentration (MIC) P. aeruginosa SR01332
Method: as §1, with “Iso-Sensitest” for “Mueller Hinton”, “Apo-transferrin” for “apo-transferrin”, “method.” for “method. The bacteria used are listed below.”

P. aeruginosa SR01335 = test: MIC, CLSI broth microdilution, Test Example 2; conditions: Pseudomonas aeruginosa, SR01335; VIM-1 like MBL producing strain (carbapenem resistance strain); cation-adjusted Iso-Sensitest broth containing human Apo-transferrin; 5×10^5 cfu/mL; read-out: Minimum Inhibitory Concentration (MIC) P. aeruginosa SR01335
Method: as §1, with “Iso-Sensitest” for “Mueller Hinton”, “Apo-transferrin” for “apo-transferrin”, “method.” for “method. The bacteria used are listed below.”

E. coli ATCCBAA-200 [3] = test: MIC, CLSI broth microdilution, Test Example 2; conditions: Escherichia coli, ATCCBAA200; SHV-4 ESBL producing strain; cation-adjusted Iso-Sensitest broth containing human Apo-transferrin; 5×10^5 cfu/mL; read-out: Minimum Inhibitory Concentration (MIC) E. coli ATCC BAA-200
Method: as §1, with “Iso-Sensitest” for “Mueller Hinton”, “Apo-transferrin” for “apo-transferrin”, “method.” for “method. The bacteria used are listed below.”

A. baumannii SR01331 = test: MIC, CLSI broth microdilution, Test Example 2; conditions: Acinetobacter baumannii, SR01331; PER-1, OXA-23.51 ESBL- & OXA-type carbapenemase producing strain; cation-adjusted Iso-Sensitest broth containing human Apo-transferrin; 5×10^5 cfu/mL; read-out: Minimum Inhibitory Concentration (MIC) A. baumannii SR01331
Method: as §1, with “Iso-Sensitest” for “Mueller Hinton”, “Apo-transferrin” for “apo-transferrin”, “method.” for “method. The bacteria used are listed below.”

K. pneumoniae ATCC700603 = test: MIC, CLSI broth microdilution, Test Example 2; conditions: Klebsiella pneumoniae, ATCC700603; SHV18 ESBL producing strain; cation-adjusted Iso-Sensitest broth containing human Apo-transferrin; 5×10^5 cfu/mL; read-out: Minimum Inhibitory Concentration (MIC) K. pneumoniae ATCC 700603
Method: as §1, with “Iso-Sensitest” for “Mueller Hinton”, “Apo-transferrin” for “apo-transferrin”, “method.” for “method. The bacteria used are listed below.”

E. coli ATCCBAA-196 = test: MIC, CLSI broth microdilution, Test Example 2; conditions: Escherichia coli, ATCCBAA196; TEM-10 ESBL producing strain; cation-adjusted Iso-Sensitest broth containing human Apo-transferrin; 5×10^5 cfu/mL; read-out: Minimum Inhibitory Concentration (MIC) E. coli ATCC BAA-196
Method: as §1, with “Iso-Sensitest” for “Mueller Hinton”, “Apo-transferrin” for “apo-transferrin”, “method.” for “method. The bacteria used are listed below.”

E. cloacae NCTC13464 = test: MIC, CLSI broth microdilution, Test Example 2; conditions: Enterobacter cloacae, NCTC13464; CTX-M group 9 ESBL producing strain; cation-adjusted Iso-Sensitest broth containing human Apo-transferrin; 5×10^5 cfu/mL; read-out: Minimum Inhibitory Concentration (MIC) E. cloacae NCTC 13464
Method: as §1, with “Iso-Sensitest” for “Mueller Hinton”, “Apo-transferrin” for “apo-transferrin”, “method.” for “method. The bacteria used are listed below.”

E. coli SR01337 = test: MIC, CLSI broth microdilution, Test Example 2; conditions: Escherichia coli, SR01337; TEM-1 ESBL producing strain; cation-adjusted Iso-Sensitest broth containing human Apo-transferrin; 5×10^5 cfu/mL; read-out: Minimum Inhibitory Concentration (MIC) E. coli SR01337
Method: as §1, with “Iso-Sensitest” for “Mueller Hinton”, “Apo-transferrin” for “apo-transferrin”, “method.” for “method. The bacteria used are listed below.”

Compound | MIC (P. aeruginosa SR24) | MIC (P. aeruginosa SR24837) | MIC (A. baumannii SR27323) | MIC (E. coli ATCCBAA-200 [1]) | MIC [2] | MIC (P. aeruginosa SR27060) | MIC (E. coli ATCCBAA-199) | MIC (P. aeruginosa SR01332) | MIC (P. aeruginosa SR01335) | MIC (E. coli ATCCBAA-200 [3]) | MIC (A. baumannii SR01331) | MIC (K. pneumoniae ATCC700603) | MIC (E. coli ATCCBAA-196) | MIC (E. cloacae NCTC13464) | MIC (E. coli SR01337)
CC(C)(O/N=C(\C(=O)N[C@@H]1C(=O)N2C(C(=O)[O-])=C(C[N+]34CCC(CNC(=O)c5ccc(O)c(O)c5Cl)(CC3)CC4)CS[C@H]12)c1csc(N)n1)C(=O)[O-].[Na+] [Comparative Compound 1, reference compound] | 0.5 µg/mL | > 32 µg/mL | 1 µg/mL | 4 µg/mL | 0.125 µg/mL | 4 µg/mL | 2 µg/mL | – | – | – | – | – | – | – | –
CC(C)(O/N=C(\C(=O)N[C@@H]1C(=O)N2C(c3nnn[n-]3)=C(C[N+]3(CCNC(=O)c4ccc(O)c(O)c4Cl)CCCC3)CS[C@H]12)c1csc(N)n1)C(=O)[O-].[Na+] [Compound I-1] | 0.5 µg/mL | 0.5 µg/mL | 0.5 µg/mL | 0.125 µg/mL | ≤ 0.031 µg/mL | 0.5 µg/mL | 0.063 µg/mL | – | – | – | – | – | – | – | –
CC(C)(O/N=C(\C(=O)N[C@@H]1C(=O)N2C(c3nnn[n-]3)=C(C[N+]3(C)[C@@H]4CC[C@H]3C[C@@H](NC(=O)c3ccc(O)c(O)c3Cl)C4)CS[C@H]12)c1csc(N)n1)C(=O)[O-].[Na+] (stereo partly shown) [Compound I-2] | 0.25 µg/mL | 0.25 µg/mL | 1 µg/mL | 1 µg/mL | ≤ 0.031 µg/mL | 1 µg/mL | 0.5 µg/mL | – | – | – | – | – | – | – | –
Nc1nc(/C(=N/O[C@@H](CC(=O)[O-])C(=O)[O-])C(=O)N[C@@H]2C(=O)N3C(c4nnn[n-]4)=C(C[N+]4(CCNC(=O)c5ccc(O)c(O)c5Cl)CCCC4)CS[C@H]23)cs1.[Na+].[Na+] [Compound I-3] | 0.5 µg/mL | 2 µg/mL | 0.25 µg/mL | 0.063 µg/mL | ≤ 0.031 µg/mL | 1 µg/mL | ≤ 0.031 µg/mL | – | – | – | – | – | – | – | –

Continued, values first:

MIC (P. aeruginosa SR24) | MIC (P. aeruginosa SR24837) | MIC (A. baumannii SR27323) | MIC (E. coli ATCCBAA-200 [1]) | MIC [2] | MIC (P. aeruginosa SR27060) | MIC (E. coli ATCCBAA-199) | MIC (P. aeruginosa SR01332) | MIC (P. aeruginosa SR01335) | MIC (E. coli ATCCBAA-200 [3]) | MIC (A. baumannii SR01331) | MIC (K. pneumoniae ATCC700603) | MIC (E. coli ATCCBAA-196) | MIC (E. cloacae NCTC13464) | MIC (E. coli SR01337) | Compound
0.5 µg/mL | 4 µg/mL | 0.5 µg/mL | 0.5 µg/mL | ≤ 0.031 µg/mL | 0.5 µg/mL | 0.125 µg/mL | – | – | – | – | – | – | – | – | Nc1nc(/C(=N/O[C@@H](CC(=O)[O-])C(=O)[O-])C(=O)N[C@@H]2C(=O)N3C(c4nnn[n-]4)=C(C[N+]45CCC[C@H]4CN(C(=O)c4cc(O)c(O)c(Cl)c4)CC5)CS[C@H]23)cs1.[Na+].[Na+] (stereo partly shown) [Compound I-4]
0.25 µg/mL | 2 µg/mL | 0.125 µg/mL | 1 µg/mL | 0.063 µg/mL | 0.5 µg/mL | 0.5 µg/mL | – | – | – | – | – | – | – | – | CC(C)(O/N=C(\C(=O)N[C@@H]1C(=O)N2C(c3nnn[n-]3)=C(C[N+]34CCC[C@H]3CN(C(=O)c3cc(O)c(O)c(F)c3)CC4)CS[C@H]12)c1csc(N)n1)C(=O)[O-].[Na+] (stereo partly shown) [Compound I-5]
– | – | – | – | – | – | – | 0.5 µg/mL | 1 µg/mL | 1 µg/mL | 0.5 µg/mL | 0.25 µg/mL | 0.5 µg/mL | 0.125 µg/mL | ≤ 0.031 µg/mL | Cc1cc2cc(O)c(O)cc2c[n+]1CC1=C(c2nnn[nH]2)N2C(=O)[C@@H](NC(=O)/C(=N\OC(C)(C)C(=O)O)c3nsc(N)n3)[C@H]2SC1.[Na+] [Compound I-109]
– | – | – | – | – | – | – | 0.5 µg/mL | 0.25 µg/mL | 0.25 µg/mL | 0.125 µg/mL | 0.125 µg/mL | 0.125 µg/mL | ≤ 0.031 µg/mL | ≤ 0.031 µg/mL | CC(C)(O/N=C(\C(=O)N[C@@H]1C(=O)N2C(c3nnn[n-]3)=C(C[n+]3ccc4cc(O)c(O)cc4c3)CS[C@H]12)c1nsc(N)n1)C(=O)[O-].[Na+] [Compound I-113]
